In PubChem BioAssay (NCI):
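Briefly, cells in 96-well plates were exposed to five compound concentrations for 48 h, and endpoints were estimated by linear interpolation. Here, GI50 denotes the concentration required for 50% inhibition of growth. TGI: total growth inhibition.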

Tests used:
Experiment in all cases: NCI anticancer screen, dose series, 48 h
KM12 colon = system: KM12 colon
DU-145 prostate = system: DU-145 prostate
HS 578T breast = system: HS 578T breast
HOP-92 NSCLC = system: HOP-92 NSCLC
MDA-MB-231 breast = system: MDA-MB-231 breast
SF-268 CNS = system: SF-268 CNS
SF-295 CNS = system: SF-295 CNS
U251 CNS = system: U251 CNS
SR leukemia = system: SR leukemia
K-562 leukemia = system: K-562 leukemia

SMILES | TGI (KM12 colon) [µM] | TGI (DU-145 prostate) [µM] | TGI (HS 578T breast) [µM] | TGI (HOP-92 NSCLC) [µM] | TGI (MDA-MB-231 breast) [µM] | TGI (SF-268 CNS) [µM] | TGI (SF-295 CNS) [µM] | TGI (U251 CNS) [µM] | TGI (SR leukemia) [µM] | TGI (K-562 leukemia) [µM] | GI50 (KM12 colon) [µM] | GI50 (DU-145 prostate) [µM] | GI50 (HS 578T breast) [µM] | GI50 (HOP-92 NSCLC) [µM] | GI50 (MDA-MB-231 breast) [µM] | GI50 (SF-268 CNS) [µM] | GI50 (SF-295 CNS) [µM] | GI50 (U251 CNS) [µM] | GI50 (SR leukemia) [µM] | GI50 (K-562 leukemia) [µM]
CCCn1cnc2c(SCC(=O)O)nc(N)nc21 | > 100 | > 100 | > 100 | > 100 | > 100 | > 100 | > 100 | > 100 | > 100 | > 100 | – | – | – | – | – | – | – | – | – | –
Cc1cc(Cl)ccc1OCC(=O)Nc1nc(N)nc(N)n1 | > 100 | > 100 | > 100 | > 100 | > 100 | > 100 | > 100 | > 100 | > 100 | > 100 | – | – | – | – | – | – | – | – | – | –
COc1ccc(C(=O)c2cc3c(N)c(C(=O)Nc4ccccc4)sc3nc2C)cc1 | > 100 | > 100 | 67.5 | > 100 | > 100 | > 100 | > 100 | > 100 | > 100 | > 100 | 0.539 | 2.21 | 0.331 | 86.3 | 2.43 | 3.65 | 0.639 | 0.704 | 0.376 | 0.526
CCOc1ccc2c(c1)C(=O)c1c-2n(CCCBr)c(=O)c2cc([N+](=O)[O-])ccc12 | > 100 | > 100 | > 100 | > 100 | > 100 | > 100 | > 100 | > 100 | > 100 | > 100 | 56 | 4.29 | > 100 | 37.1 | > 100 | 5.1 | 12.3 | 6.13 | 0.554 | 50.9
CCCCCCCC(=O)OCCCC1[C@]2(C)CC[C@@]3(C)C([C@H](C)CCC=C(C)C)CC[C@]3(C)C2CC[C@]12OC2(C)C (stereo not given in full) | 84.1 | > 100 | > 100 | > 100 | 34.6 | 81.8 | > 100 | 93.3 | 45.7 | > 100 | 29.6 | 38.1 | 40.3 | 28.2 | 10.8 | 27.2 | 31.2 | 27.7 | 22.6 | 44.1
Cc1cc(Nc2nc(C(=O)Nc3ccccc3)nc3ccccc23)n[nH]1 | > 25 | > 25 | > 25 | > 25 | > 25 | > 25 | > 25 | > 25 | > 25 | > 25 | 3.68 | 9.08 | 7.68 | 0.399 | 13.6 | 9.25 | 7.82 | 5.71 | 4.36 | 7.94
Cc1ccc2nc(-c3ccc(OCC(=O)N=Nc4c(O)[nH]c5ccccc45)cc3)[nH]c2c1 | 13.2 | 13.5 | 42.3 | 18.2 | 3.93 | 14.4 | 49.7 | 3.6 | 3.76 | 9.44 | 3.55 | 3.29 | 11.4 | 2.79 | 1.83 | 3.54 | 19.4 | 1.86 | 0.499 | 2.43
CC(C)c1nc(N(C)S(C)(=O)=O)nc(-c2ccc(F)cc2)c1/C=C/[C@@H](O)C[C@@H](O)CC(=O)O | > 100 | > 100 | > 100 | 6.68 | 42 | > 100 | > 100 | > 100 | > 100 | > 100 | > 100 | > 100 | 51.9 | 0.467 | 4.81 | 28.3 | 32.7 | 18.9 | 32.7 | > 100
c1cc(-c2nnc(SSc3ncnc4nc[nH]c34)o2)ccn1 | > 100 | > 100 | > 100 | > 100 | > 100 | > 100 | 12.8 | > 100 | > 100 | > 100 | 2.61 | 0.455 | 2.56 | 0.582 | 4.45 | 2.18 | 0.51 | 7.22 | 0.576 | 0.351
C#CCNC(=S)N/N=C(\C)c1ccccn1 | > 100 | > 59.3 | > 100 | > 100 | > 100 | > 100 | > 100 | > 100 | 3.4 | > 100 | 0.426 | 0.404 | 9.84 | 0.28 | 0.292 | 0.517 | 0.706 | 0.408 | 0.328 | 0.0751
O=c1cc(-c2ccc(O)cc2)oc2cc(O[C@@H]3O[C@H](CO)[C@@H](O)[C@H](O)[C@H]3O)cc(O)c12 | > 100 | > 100 | > 100 | > 100 | > 100 | > 100 | > 100 | > 100 | > 100 | > 100 | – | – | – | – | – | – | – | – | – | –
COC(=O)c1cc2c(cc1Cl)SC1=NN(C)S(=O)N1S2(=O)=O (stereo not given) | > 100 | > 100 | > 100 | > 100 | > 100 | > 100 | > 100 | > 100 | > 100 | > 100 | > 100 | > 100 | > 100 | 53.7 | > 100 | > 100 | > 100 | > 100 | > 100 | > 100
CCN(Cc1cc(F)ccc1F)c1ccc(CO)c(Cl)c1 | 30.8 | 36.7 | 47.4 | 6.21 | 29.1 | 40.6 | 13.2 | 17.1 | 44.3 | 20.9 | 14.5 | 15.5 | 16.2 | 0.292 | 13.6 | 17.3 | 0.283 | 0.788 | 16.1 | 0.617
